Structures can show the parent of a compound that is named as a salt.
Tests used:
mouse TAAR1 = target: T1, mouse TAAR1 (Mus musculus, UniProt Q923Y8); test: Radioligand binding assay on mouse TAAR1; conditions: for Ki: mouse TAAR1, HEK-293 membranes, first value of cell mouse/rat
T1 construct: expressed in transfected cells; membrane preparation
Protocol: (§1) For the construction of expression plasmids the coding sequences of human, rat and mouse TAAR 1 were amplified from genomic DNA essentially as described by Lindemann et al.. The Expand High Fidelity PCR System (Roche Diagnostics) was used with 1.5 mM Mg^2+ and purified PCR products were cloned into pCR2.1-TOPO cloning vector (Invitrogen) following the instructions of the manufacturer. PCR products were subcloned into the pIRESneo2 vector (BD Clontech, Palo Alto, Calif.), and expression vectors were sequence verified before introduction in cell lines.
(§2) HEK293 cells (ATCC # CRL-1573) were cultured essentially as described by Lindemann et al. (2005). For the generation of stably transfected cell lines HEK293 cells were transfected with the pIRESneo2 expression plasmids containing the TAAR coding sequences (described above) with Lipofectamine 2000 (Invitrogen) according to the instructions of the manufacturer, and 24 hrs post transfection the culture medium was supplemented with 1 mg/ml G418 (Sigma, Buchs, Switzerland). After a culture period of about 10 d clones were isolated, expanded and tested for responsiveness to trace amines (all compounds purchased from Sigma) with the cAMP Biotrak Enzyme immunoassay (EIA) System (Amersham) following the non-acetylation EIA procedure provided by the manufacturer.
Radioligand Binding Assay on Mouse TAAR1
(§3) Membrane Preparation and Radioligand Binding.
HEK-293 cells stably expressing mouse TAAR1 were maintained at 37° C. and 5% CO2 in DMEM high glucose medium, containing fetal calf serum (10%, heat inactivated for 30 min at 56° C.), penicillin/streptomycin (1%), and 375 μg/ml geneticin (Gibco). Cells were released from culture flasks using trypsin/EDTA, harvested, washed twice with ice-cold PBS (without Ca^2+ and Mg^2+), pelleted at 1,000 rpm for 5 min at 4° C., frozen and stored at −80° C. Frozen pellets were suspended in 20 ml HEPES-NaOH (20 mM, pH 7.4) containing 10 mM EDTA and homogenized with a Polytron (PT 6000, Kinematica) at 14,000 rpm for 20 s. The homogenate was centrifuged at 48,000×g for 30 min at 4° C. Subsequently, the supernatant was removed and discarded, and the pellet resuspended in 20 ml HEPES-NaOH (20 mM, pH 7.4) containing 0.1 mM EDTA using the Polytron (20 s at 14,000 rpm). This procedure was repeated and the final pellet resuspended in HEPES-NaOH containing 0.1 mM EDTA and homogenized using the Polytron. Typically, aliquots of 2 ml membrane portions were stored at −80° C. With each new membrane batch the dissociation constant (Kd) was determined via a saturation curve. The TAAR1 radioligand ^3[H]—(S)-4-[(ethyl-phenyl-amino)-methyl]-4,5-dihydro-oxazol-2-ylamine (described in WO 2008/098857) was used at a concentration equal to the calculated Kd value, that was usually around 0.7 nM, resulting in the binding of approximately 0.5% of the radioligand and a specific binding representing approximately 70% of the total binding. Nonspecific binding was defined as the amount of ^3[H]—(S)-4-[(ethyl-phenyl-amino)-methyl]-4,5-dihydro-oxazol-2-ylamine bound in the presence of 10 μM unlabeled ligand. All compounds were tested at a broad range of concentrations (10 pM to 10 μM) in duplicates. The test compounds (20 μl/well) were transferred into a 96 deep well plate (TreffLab), and 180 μl of HEPES-NaOH (20 mM, pH 7.4) containing MgCl2 (10 mM) and CaCl2 (2 mM) (binding buffer), 300 μl of the radioligand ^3[H]—(S)-4-[(ethyl-phenyl-amino)-methyl]-4,5-dihydro-oxazol-2-ylamine at a concentration of 3.3×Kd in nM and 500 μl of the membranes (resuspended at 60 μg protein per ml) added. The 96 deep well plates were incubated for 1 hr at 4° C. Incubations were terminated by rapid filtration through Unifilter-96 plates (Packard Instrument Company) and glass filters GF/C (Perkin Elmer) presoaked for 1 hr in polyethylenimine (0.3%) and washed 3 times with 1 ml of cold binding buffer. […]

rat TAAR1 = target: T2, rat TAAR1 (Rattus norvegicus, UniProt Q923Y9); test: Radioligand binding assay on rat TAAR1; conditions: for Ki: rat TAAR1, HEK-293 membranes, second value of cell mouse/rat
T2 construct: expressed in transfected cells; membrane preparation
T2 sequence (Q923Y9 whole entry): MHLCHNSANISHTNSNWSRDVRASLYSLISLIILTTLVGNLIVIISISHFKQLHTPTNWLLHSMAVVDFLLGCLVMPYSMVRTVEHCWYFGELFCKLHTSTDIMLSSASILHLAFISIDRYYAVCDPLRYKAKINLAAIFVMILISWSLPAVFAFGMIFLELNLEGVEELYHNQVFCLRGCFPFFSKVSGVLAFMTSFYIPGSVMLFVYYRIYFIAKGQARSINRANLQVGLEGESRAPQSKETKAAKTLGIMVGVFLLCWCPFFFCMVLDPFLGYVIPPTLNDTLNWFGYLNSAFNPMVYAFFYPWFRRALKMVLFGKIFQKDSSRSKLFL
Protocol: as §1, §2
Radioligand Binding Assay on Rat TAAR1
as §3
HEK-293 cells stably expressing rat TAAR1 were maintained at 37° C. and 5% CO2 in DMEM high glucose medium, containing fetal calf serum (10%, heat inactivated for 30 min at 56° C.), penicillin/streptomycin (1%), and 375 μg/ml geneticin (Gibco). Cells were released from culture flasks using trypsin/EDTA, harvested, washed twice with ice-cold PBS (without Ca^2+ and Mg^2+), pelleted at 1,000 rpm for 5 min at 4° C., frozen and stored at −80° C. Frozen pellets were suspended in 20 ml HEPES-NaOH (20 mM, pH 7.4) containing 10 mM EDTA and homogenized with a Polytron (PT 6000, Kinematica) at 14,000 rpm for 20 s. The homogenate was centrifuged at 48,000×g for 30 min at 4° C. Subsequently, the supernatant was removed and discarded, and the pellet resuspended in 20 ml HEPES-NaOH (20 mM, pH 7.4) containing 0.1 mM EDTA using the Polytron (20 s at 14,000 rpm). This procedure was repeated and the final pellet resuspended in HEPES-NaOH containing 0.1 mM EDTA and homogenized using the Polytron. Typically, aliquots of 2 ml membrane portions were stored at −80° C. With each new membrane batch the dissociation constant (Kd) was determined via a saturation curve. […] Nonspecific binding was defined as the amount of ^3[H]—(S)-4-[(ethyl-phenyl-amino)-methyl]-4,5-dihydro-oxazol-2-ylamine bound in the presence of 10 μM unlabeled ligand. All compounds were tested at a broad range of concentrations (10 pM to 10 μM) in duplicates. The test compounds (20 μl/well) were transferred into a 96 deep well plate (TreffLab), and 180 μl of HEPES-NaOH (20 mM, pH 7.4) containing MgCl2 (10 mM) and CaCl2 (2 mM) (binding buffer), 300 μl of the radioligand ^3[H]—(S)-4-[(ethyl-phenyl-amino)-methyl]-4,5-dihydro-oxazol-2-ylamine at a concentration of 3.3×Kd in nM and 500 μl of the membranes (resuspended at 50 μg protein per ml) added. The 96 deep well plates were incubated for 1 hr at 4° C. Incubations were terminated by rapid filtration through Unifilter-96 plates (Packard Instrument Company) and glass filters GF/C (Perkin Elmer) presoaked for 1 hr in polyethylenimine (0.3%) and washed 3 times with 1 ml of cold binding buffer. After addition of 45 μl of Microscint 40 (PerkinElmer) the Unifilter-96 plate was sealed and after 1 hr the […] counted using a TopCount Microplate Scintillation Counter (Packard Instrument Company).

T1 sequence (Q923Y8 whole entry): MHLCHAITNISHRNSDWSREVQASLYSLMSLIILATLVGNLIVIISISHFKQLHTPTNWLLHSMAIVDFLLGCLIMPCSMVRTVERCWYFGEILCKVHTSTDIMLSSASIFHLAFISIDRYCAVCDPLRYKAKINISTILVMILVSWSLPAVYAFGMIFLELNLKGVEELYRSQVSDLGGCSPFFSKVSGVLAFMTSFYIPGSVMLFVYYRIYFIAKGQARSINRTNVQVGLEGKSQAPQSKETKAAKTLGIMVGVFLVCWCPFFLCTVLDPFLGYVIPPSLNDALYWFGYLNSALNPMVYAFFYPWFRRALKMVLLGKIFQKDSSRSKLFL

Q: Which results are given for CCOc1cnc(C(=O)Nc2ccc([C@H]3CNCCO3)c(F)c2)cn1 [Example 13, (S)-5-Ethoxy-N-(3-fluoro-4-(morpholin-2-yl)phenyl)pyrazine-2-carboxamide hydrochloride]?
A: Ki (mouse TAAR1): 0.0041 µM; Ki (rat TAAR1): 0.11 µM

Q: What does the source list for O=C(Nc1ccc([C@@H]2CNCCO2)c(F)c1)c1cnc(C2CC2)cn1 [Example 17, 5-Cyclopropyl-pyrazine-2-carboxylic acid ((R)-3-fluoro-4-morpholin-2-yl-phenyl)-amide hydrochloride]?
A: Ki (mouse TAAR1): 0.0072 µM; Ki (rat TAAR1): 0.0076 µM

Q: With O=C(Nc1ccc([C@H]2CNCCO2)c(F)c1)c1cnc(OCC2CC2)cn1 [Example 12, (S)-5-(Cyclopropylmethoxy)-N-(3-fluoro-4-(morpholin-2-yl)phenyl)pyrazine-2-carboxamide hydrochloride] as the compound, how does the Ki (mouse TAAR1) read?
A: The Ki was 0.0045 µM.

Q: What about the Ki (rat TAAR1) of the same compound?
A: The Ki was 0.04 µM.

Q: How did the Ki (mouse TAAR1) turn out when O=C(Nc1ccc([C@H]2CNCCO2)c(F)c1)c1cnc(N2CC(F)(F)C2)cn1 [Example 16, 5-(3,3-Difluoro-azetidin-1-yl)-pyrazine-2-carboxylic acid ((S)-3-fluoro-4-morpholin-2-yl-phenyl)-amide hydrochloride] was run?
A: The Ki was 0.0193 µM.

Q: What about the Ki (rat TAAR1) of the same compound?
A: Its Ki is 0.191 µM.

Q: Which Ki (mouse TAAR1) does the source give for COc1cncc(C(=O)Nc2ccc([C@@H]3CNCCO3)c(F)c2)n1 [Example 7, (R)—N-(3-Fluoro-4-(morpholin-2-yl)phenyl)-6-methoxypyrazine-2-carboxamide hydrochloride] here?
A: The Ki was 0.147 µM.

Q: And the Ki (rat TAAR1)?
A: The Ki was 0.068 µM.

Q: How did the Ki (mouse TAAR1) turn out when O=C(Nc1ccc([C@H]2CNCCO2)c(F)c1)c1cnc(C2CC2)cn1 [Example 18, 5-Cyclopropyl-pyrazine-2-carboxylic acid ((S)-3-fluoro-4-morpholin-2-yl-phenyl)-amide hydrochloride] was run?
A: Its Ki is 0.0036 µM.

Q: What about the Ki (rat TAAR1) of the same compound?
A: The Ki was 0.0625 µM.

Q: N#Cc1cc(NC(=O)c2cnc(C(F)(F)F)cn2)ccc1[C@H]1CNCCO1 [Example 3, (S)—N-(3-Cyano-4-(morpholin-2-yl)phenyl)-5-(trifluoromethyl)pyrazine-2-carboxamide hydrochloride] was tested. Which Ki (mouse TAAR1) did it give?
A: Its Ki is 0.0204 µM.

Q: And the Ki (rat TAAR1)?
A: Its Ki is 1.09 µM.

Q: With Cc1ccc2ncc(C(=O)Nc3ccc([C@H]4CNCCO4)c(F)c3)nc2c1 [Example 15, 7-Methyl-quinoxaline-2-carboxylic acid ((S)-3-fluoro-4-morpholin-2-yl-phenyl)-amide hydrochloride] as the compound, how does the Ki (mouse TAAR1) read?
A: The Ki was 0.0068 µM.

Q: And the Ki (rat TAAR1)?
A: Its Ki is 0.0131 µM.

Q: Which results are given for CCN(C[C@H]1COC(N)=N1)c1ccccc1 [^3[H]—(S)-4-[(ethyl-phenyl-amino)-methyl]-4,5-dihydro-oxazol-2-ylamine, reference compound]?
A: Kd (mouse TAAR1; mouse TAAR1 membranes, saturation curve, usual value, read-out: dissociation constant (Kd) of the radioligand): ~0.7 nM; Kd (rat TAAR1; rat TAAR1 membranes, saturation curve, usual value, read-out: dissociation constant (Kd) of the radioligand): ~2.3 nM

Q: What does the source list for O=C(Nc1ccc([C@@H]2CNCCO2)c(F)c1)c1cnc(OCC(F)(F)F)cn1 [Example 28, (R)—N-(3-Fluoro-4-(morpholin-2-yl)phenyl)-5-(2,2,2-trifluoroethoxy)pyrazine-2-carboxamide]?
A: Ki (mouse TAAR1): 0.0053 µM; Ki (rat TAAR1): 0.0037 µM

Q: Which Ki (mouse TAAR1) does the source give for O=C(Nc1ccc([C@H]2CNCCO2)cc1F)c1cnc(OCC(F)(F)F)cn1 [Example 23, (S)—N-(2-Fluoro-4-(morpholin-2-yl)phenyl)-5-(2,2,2-trifluoroethoxy)pyrazine-2-carboxamide] here?
A: Its Ki is 0.0046 µM.

Q: What about the Ki (rat TAAR1) of the same compound?
A: Its Ki is 0.0881 µM.

Q: For O=C(Nc1ccc([C@H]2CNCCO2)cc1F)c1cncc(OCC(F)(F)F)n1 [Example 25, (S)—N-(2-Fluoro-4-(morpholin-2-yl)phenyl)-6-(2,2,2-trifluoroethoxy)pyrazine-2-carboxamide], which Ki (mouse TAAR1) is on record?
A: Its Ki is 0.044 µM.

Q: What about the Ki (rat TAAR1) of the same compound?
A: Its Ki is 0.0122 µM.

Q: With O=C(Nc1ccc([C@H]2CNCCO2)c(F)c1)c1cncc(OCC(F)(F)F)n1 [Example 26, (S)—N-(3-Fluoro-4-(morpholin-2-yl)phenyl)-6-(2,2,2-trifluoroethoxy)pyrazine-2-carboxamide] as the compound, how does the Ki (mouse TAAR1) read?
A: Its Ki is 0.0167 µM.

Q: What about the Ki (rat TAAR1) of the same compound?
A: The Ki was 0.0032 µM.

Q: What does the source list for CC(C)c1cncc(C(=O)Nc2ccc([C@H]3CNCCO3)cc2F)n1 [Example 22, 6-Isopropyl-pyrazine-2-carboxylic acid ((S)-2-fluoro-4-morpholin-2-yl-phenyl)-amide]?
A: Ki (mouse TAAR1): 0.0522 µM; Ki (rat TAAR1): 0.391 µM

Q: Which Ki (mouse TAAR1) does the source give for O=C(Nc1ccc([C@H]2CNCCO2)c(F)c1)c1cncc(C(F)(F)F)n1 [Example 5, (S)—N-(3-Fluoro-4-(morpholin-2-yl)phenyl)-6-(trifluoromethyl)pyrazine-2-carboxamide hydrochloride] here?
A: Its Ki is 0.038 µM.

Q: And the Ki (rat TAAR1)?
A: Its Ki is 0.054 µM.

Q: O=C(Nc1ccc([C@H]2CNCCO2)c(F)c1)c1cnc2ccccc2n1 [Example 14, (S)—N-(3-Fluoro-4-(morpholin-2-yl)phenyl)quinoxaline-2-carboxamide hydrochloride] was tested. Which Ki (mouse TAAR1) did it give?
A: The Ki was 0.0028 µM.

Q: And the Ki (rat TAAR1)?
A: The Ki was 0.0222 µM.

Q: With COc1cnc(C(=O)Nc2ccc([C@@H]3CNCCO3)c(F)c2)cn1 [Example 8, (R)—N-(3-Fluoro-4-(morpholin-2-yl)phenyl)-5-methoxypyrazine-2-carboxamide hydrochloride] as the compound, how does the Ki (mouse TAAR1) read?
A: Its Ki is 0.0107 µM.

Q: And the Ki (rat TAAR1)?
A: The Ki was 0.0476 µM.

Q: O=C(Nc1ccc([C@@H]2CNCCO2)cc1F)c1cnc(OCC(F)(F)F)cn1 [Example 27, (R)—N-(2-Fluoro-4-(morpholin-2-yl)phenyl)-5-(2,2,2-trifluoroethoxy)pyrazine-2-carboxamide] was tested. Which Ki (mouse TAAR1) did it give?
A: The Ki was 0.0059 µM.

Q: What about the Ki (rat TAAR1) of the same compound?
A: The Ki was 0.0183 µM.

Q: What does the source list for O=C(Nc1ccc([C@@H]2CNCCO2)cc1F)c1cncc(OCC(F)(F)F)n1 [Example 29, (R)—N-(2-Fluoro-4-(morpholin-2-yl)phenyl)-6-(2,2,2-trifluoroethoxy)pyrazine-2-carboxamide]?
A: Ki (mouse TAAR1): 0.0447 µM; Ki (rat TAAR1): 0.0053 µM
